{"source": "patent US9662059B2", "about": "“Imaging agents for monitoring changes of dopamine receptors and methods of using thereof” (The Regents of the University of California, priority 2007, dated 2017)", "key": {"[1]": {"target": "T1, D2R (Rattus norvegicus, UniProt P61169)", "T1 sequence (P61169 whole entry)": "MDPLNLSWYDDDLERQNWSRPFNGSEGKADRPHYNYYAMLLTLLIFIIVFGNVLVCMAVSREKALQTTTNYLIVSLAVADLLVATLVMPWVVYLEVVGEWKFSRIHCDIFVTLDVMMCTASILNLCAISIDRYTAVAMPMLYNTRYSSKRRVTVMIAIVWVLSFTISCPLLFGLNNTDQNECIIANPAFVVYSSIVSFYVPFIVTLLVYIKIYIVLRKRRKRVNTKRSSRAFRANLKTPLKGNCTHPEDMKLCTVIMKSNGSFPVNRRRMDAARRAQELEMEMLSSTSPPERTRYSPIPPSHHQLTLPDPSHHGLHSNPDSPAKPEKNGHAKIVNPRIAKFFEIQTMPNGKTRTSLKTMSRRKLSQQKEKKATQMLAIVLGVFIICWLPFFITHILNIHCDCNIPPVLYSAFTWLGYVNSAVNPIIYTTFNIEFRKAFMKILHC", "test": "in vitro autoradiography of ^18F-fallypride binding in rat pancreas sections", "set-up": "from tissue; host or cells: rat pancreas, 10 μm cryosections", "procedure": "Male Sprague-Dawley rats (200-250 g) or male Lewis rats (100-150 g) were anesthetized and decapitated. The brain and pancreas was rapidly removed and frozen in isopentane at −20° C. […] Slices were stored at −20° C. Slices were preincubated for 10 minutes in 50 mM Tris-HCl, 120 mM NaCl, 5 mM KCl buffer (pH 7.4). Slices were then incubated with 1-2 μCi/cc of ^18F-fallypride at 37° C. for 1 hour. […] After incubation, slices were rinsed twice for 2 min in ice-cold buffer, dipped briefly in ice-cold water, blown dry and laid out for autoradiography. Slides with tissue samples were exposed to a multipurpose storage phosphor screen for 24 hours and developed; the autoradiographs were generated using the Phosphor Cyclone Imager (Packard Instruments Co.) The amount of binding in the pancreas was measured as digital light units, DLU/mm^2. Autoradiographs were quantified using a computer-based image analysis system (OptiQuant Version 4.0 Packard Instruments Co., Boston Mass.)."}, "[2]": {"system": "D2/D3 receptors", "settings": "cited from earlier work"}, "[3]": {"target": "T2, D2R (Homo sapiens, UniProt P14416)", "T2 construct": "from tissue; host or cells: pancreas region of a healthy human volunteer, in vivo", "T2 sequence (P14416 whole entry)": "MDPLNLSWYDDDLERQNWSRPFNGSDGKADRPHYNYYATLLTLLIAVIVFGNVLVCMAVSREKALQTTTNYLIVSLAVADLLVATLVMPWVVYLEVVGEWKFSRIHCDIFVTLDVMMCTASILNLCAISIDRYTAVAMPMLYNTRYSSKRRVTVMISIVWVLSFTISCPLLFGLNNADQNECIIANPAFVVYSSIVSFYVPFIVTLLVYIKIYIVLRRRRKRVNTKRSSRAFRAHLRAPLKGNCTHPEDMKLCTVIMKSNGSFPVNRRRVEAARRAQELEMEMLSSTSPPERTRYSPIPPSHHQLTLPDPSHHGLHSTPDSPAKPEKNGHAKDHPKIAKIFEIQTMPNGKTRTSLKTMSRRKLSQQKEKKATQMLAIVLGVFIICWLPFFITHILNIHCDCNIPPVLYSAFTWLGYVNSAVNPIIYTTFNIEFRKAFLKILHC", "test": "human PET imaging of the pancreas region with whole body HR+ PET scanner", "assay_type": "in vivo", "settings": "healthy volunteer, 80 mins post injection", "procedure": "The subjects were prepared by placing one intravenous catheter in one arm for administration of the ^18F-fallypride. The subjects were then positioned in the PET scanner, and their alignment was marked for purposes of repositioning. The subjects were requested to lay still during the PET data acquisition in the dimly lit quiet room but were free to open/shut their eyes. The PET data was acquired with an EXACT HR+ PET scanner (in-plane FWHM=4.6 mm, axial FWHM=3.5 mm, axial FOV=15.52 cm). A 5-minute transmission scan using ^68Ge/^68Ga rod sources was acquired prior to administration of the radiopharmaceutical. Scanning was initiated with a 30-second bolus infusion of the radiopharmaceutical followed by a saline flush. A ^18F-fallypride dose of approximately 0.07 mCi/kg was administered to each of the subjects (subjects weight ranged between 70 to 95 kg). The dynamic scanning sequence consisted of 6 frames at 30 seconds, 7 frames at 1 minute, 5 frames at 2 minutes, 4 frames at 5 minutes and 4 frames at 10 minutes. The subject was marked for repositioning and then removed from the scanner for a 20-minute break period. A second dynamic sequence with 8 frames at 10 minutes each was acquired, yielding a total study time of approximately 3 hours. The data set was reconstructed using the ECAT v 7.2 software, with an OSEM algorithm (3 iterations, 16 subsets). […]"}, "[4]": {"target": "T1, D2R", "test": "^18F-fallypride binding to pancreatic and brain sections of control and streptozotocin-treated rats", "set-up": "from tissue; host or cells: pancreas, striatum and cerebellum sections of male Sprague-Dawley rats; species or system male Sprague-Dawley rats", "procedure": "Male Sprague-Dawley rats were used to develop a model for diabetes. Streptozotocin (STZ) (80 mg/kg body weight, i.p. injection) chemically destroyed beta-cells and induced diabetes in adult male Sprague-Dawley rats (Lai et al., Am J Physiol Endocrinol Metab 2007 292:E292). Blood glucose was monitored by tail vein-sampling. Diabetic rats were harvested 7 days after the onset of diabetes. ^18F-fallypride binding to pancreatic and brain sections was done for three pairs of STZ- and age-matched rats. […] Specific binding was determined for each animal by subtracting nonspecific binding, measured in digital light units per mm^2 (DLU/mm^2), from total binding for adjacent tissue sections in brain and pancreas."}, "[5]": {"system": "dopamine D2/D3 receptors", "test": "human PET/CT imaging with ^18F-fallypride, standard uptake values in organs", "assay_type": "in vivo", "settings": "normal human subject", "procedure": "The subjects were prepared by intravenous administration of ^18F-fallypride. After 80 minutes, the subjects were then positioned in the Siemen's PET/CT Biograph. The subjects were requested to lay still during the PET/CT data acquisition in the dimly lit quiet room but were free to open/shut their eyes. Static scans of 10 mins duration each were acquired at different bed positions.\nThe reconstructed dynamic PET data sets were first realigned to a reference summed image (50-80 minutes) to correct for patient motion and slight differences in positioning between the dynamic scans. These dynamic data sets were then used to create time-activity curves as well as pixel-by-pixel parametric images of the distribution volume ratio (DVR). The cerebellum (cerebellar lobes) was chosen as the reference region, having a minimal amount of specific binding to dopaminergic sites. The PET/CT data was analyzed to provide standard uptake values (SUV) in different organs which were identified using the CT image."}, "[6]": {"target": "T1, D2R", "test": "ex vivo autoradiography of brain and pancreas after intravenous ^18F-fallypride", "assay_type": "in vivo, Lewis rats", "set-up": "The brain and pancreas were isolated and sectioned to 10 μm and 40 μm sections; from tissue; host or cells: brain (striata, cerebellum) and pancreas of living Lewis rats", "procedure": "For ex vivo studies, Lewis rats were anesthetized with halothane and injected intravenously with ^18F-fallypride (0.1 to 0.2 mCi). The rats were then sacrificed at either 60 or 120 min post-injection. The brain and pancreas were isolated and sectioned to 10 μm and 40 μm sections. Slides with tissue samples were exposed to a multipurpose storage phosphor screen for 24 hours and developed; the autoradiographs were generated using the Phosphor Cyclone Imager (Packard Instruments Co.). Brain slices contained the striata, cerebellum and other regions known to contain D2R. The amount of binding to the striata, cerebellum and pancreas was measured as digital light units, DLU/mm^2. Autoradiographs were quantified using a computer-based image analysis system (OptiQuant Version 4.0 Packard Instruments Co., Boston Mass.)."}, "[7]": {"settings": "arterial blood plasma at 3 hr; cited from earlier work"}, "[8]": {"settings": "rat killed at 60 min post-injection"}}, "note": "“Also recorded” adds a separate entry of the source."}
{"smiles": "NCCc1ccc(O)c(O)c1", "note": "[Dopamine]", "values": [{"measurement": "displacement of ^18F-fallypride binding to the pancreas", "setting": "[1]; rat pancreatic sections, competitor 100 μM", "value": "does not displace; also recorded: did not displace"}]}
{"smiles": "C=CCN1CCC[C@H]1CNC(=O)c1cc(CCC[18F])cc(OC)c1OC", "note": "[^18F-fallypride]", "values": [{"measurement": "decrease in binding with aging, all brain regions", "setting": "[2]; human brain", "value": "> 10", "unit": "% per decade"}, {"measurement": "BP, orbitofrontal cortex", "setting": "[2]; younger subject", "value": 0.4}, {"measurement": "BP, putamen", "setting": "[2]; younger subject", "value": 37}, {"measurement": "Uptake of ^18F-fallypride in the human pancreas", "setting": "[3]", "value": "comparable with that in the brain"}, {"measurement": "^18F-fallypride binding to rat pancreatic sections", "setting": "[1]; 10 μm sections, 37° C., 1 hour", "value": "binds to rat pancreatic sections"}, {"measurement": "^18F-Fallypride binding, Cerebellum", "setting": "[4]; Control rats", "value": "1597 ± 1382", "unit": "DLU/mm^2"}, {"measurement": "^18F-Fallypride binding, Pancreas", "setting": "[4]; Control rats", "value": "1393 ± 479", "unit": "DLU/mm^2"}, {"measurement": "^18F-Fallypride binding, Striatum", "setting": "[4]; Control rats", "value": "121,167 ± 41,190 DLU/mm^2"}, {"measurement": "change in ^18F-fallypride binding to control tissues striatum and cerebellum", "setting": "[4]; STZ-treated rats vs control", "value": "no change"}, {"measurement": "reduction of specific ^18F-fallypride binding in the pancreas", "setting": "[4]; STZ-treated rats vs control, p<0.05", "value": "~70", "unit": "%"}, {"measurement": "^18F-Fallypride binding, Cerebellum", "setting": "[4]; Streptozotocin-treated rats", "value": "1119 ± 632", "unit": "DLU/mm^2"}, {"measurement": "^18F-Fallypride binding, Striatum", "setting": "[4]; Streptozotocin-treated rats", "value": "112,059 ± 35,271 DLU/mm^2"}, {"measurement": "^18F-Fallypride binding, Pancreas", "setting": "[4]; Streptozotocin-treated rats, p < 0.05", "value": "310 ± 303", "unit": "DLU/mm^2"}, {"measurement": "Ratio Organ/Ant Abd muscle, Pancreas- Body", "setting": "[5]", "value": 2.83}, {"measurement": "Ratio Organ/Ant Abd muscle, Pancreas- Head", "setting": "[5]", "value": 2.73}, {"measurement": "Ratio Organ/Ant Abd muscle, Pancreas- Tail", "setting": "[5]", "value": 3.10}, {"measurement": "SUV, Anterior Abdominal Muscle", "setting": "[5]", "value": 0.6}, {"measurement": "SUV, Gall bladder", "setting": "[5]", "value": 123}, {"measurement": "SUV, Kidney", "setting": "[5]", "value": 2.2}, {"measurement": "SUV, Liver", "setting": "[5]", "value": 5.0}, {"measurement": "SUV, Liver left lobe", "setting": "[5]", "value": 4.9}, {"measurement": "SUV, Liver right lobe", "setting": "[5]", "value": 5.1}, {"measurement": "SUV, Lung", "setting": "[5]", "value": 1.1}, {"measurement": "SUV, Pancreas- Body", "setting": "[5]", "value": 1.7}, {"measurement": "SUV, Pancreas- Head", "setting": "[5]", "value": 1.64}, {"measurement": "SUV, Pancreas- Tail", "setting": "[5]", "value": 1.86}, {"measurement": "SUV, Psoas Muscle", "setting": "[5]", "value": 0.9}, {"measurement": "SUV, Spine (bone marrow)", "setting": "[5]", "value": 2.8}, {"measurement": "SUV, Spleen", "setting": "[5]", "value": 1.5}, {"measurement": "binding in the pancreas", "setting": "[6]; Rat #2 killed at 120 min", "value": "significant amount of binding"}, {"measurement": "Ratio of pancreas to cerebellum", "setting": "[6]; [8]", "value": 5.3}, {"measurement": "Ratio of striatum to cerebellum", "setting": "[6]; [8]", "value": 55.3}, {"measurement": "plasma radioactivity that was ^18F-fallypride", "setting": "[7]", "value": "30-40%"}]}
